The test concerns the target T1, human mGlu4 receptor (Homo sapiens, UniProt Q14833).
T1 construct: expressed in transfected cells; host or cells: monoclonal HEK-293 cell line, stably transfected
The experiment in a line: Ca2+ mobilization in vitro assay on recombinant human mGlu4 expressed in HEK293 cells (PAM, L-AP4 at EC20). The settings on record: for Emax: HEK293, maximal response in % of the maximal stimulatory effect obtained with saturating concentrations of L-AP4, read-out: Eff. (%); for EC50: HEK293 cells expressing human mGlu4, L-AP4 added at EC20. Format: cell-based. From the text: FIG. 1: Illustration of the experimental outline for mGlu4 PAM Ca2+ mobilization screening assay and the determination of EC50 and % Emax values.
Determination of EC50 Values Using a Ca2+ Mobilization In Vitro Assay on Recombinant Human mGlu4 Expressed in HEK293 Cells:
A monoclonal HEK-293 cell line stably transfected with a cDNA encoding for the human mGlu4 receptor was generated; for the work with mGlu4 Positive Allosteric Modulators (PAMs), a cell line with low receptor expression levels and low constitutive receptor activity was selected to allow the differentiation of agonistic versus PAM activity. Cells were cultured according to standard protocols (Freshney, 2000) in Dulbecco's Modified Eagle Medium with high glucose supplemented with 1 mM glutamine, 10% (vol/vol) heat-inactivated bovine calf serum, Penicillin/Streptomycin, 50 μg/ml hygromycin and 15 μg/ml blasticidin (all cell culture reagents and antibiotics from Invitrogen, Basel, Switzerland).
About 24 hrs before an experiment, 5×10^4 cells/well were seeded in poly-D-lysine coated, black/clear-bottomed 96-well plates. The cells were loaded with 2.5 μM Fluo-4AM in loading buffer (1×HBSS, 20 mM HEPES) for 1 hr at 37° C. and washed five times with loading buffer. The cells were transferred into a Functional Drug Screening System 7000 (Hamamatsu, Paris, France), and 11 half logarithmic serial dilutions of test compound at 37° C. were added and the cells were incubated for 10-30 min. with on-line recording of fluorescence. Following this pre-incubation step, the agonist (2S)-2-amino-4-phosphonobutanoic acid (L-AP4) was added to the cells at a concentration corresponding to EC20 with on-line recording of fluorescence; in order to account for day-to-day variations in the responsiveness of cells, the EC20 of L-AP4 was determined immediately ahead of each experiment by recording of a full dose-response curve of L-AP4. Responses were measured as peak increase in fluorescence minus basal (i.e. fluorescence without addition of L-AP4), normalized to the maximal stimulatory effect obtained with saturating concentrations of L-AP4. Graphs were plotted with the % maximal stimulatory using XLfit, a curve fitting program that iteratively plots the data using Levenburg Marquardt algorithm. The single site competition analysis equation used was y=A+((B−A)/(1+((x/C)D))), where y is the % maximal stimulatory effect, A is the minimum y, B is the maximum y, C is the EC50, x is the log 10 of the concentration of the competing compound and D is the slope of the curve (the Hill Coefficient). From these curves the EC50 (drug concentration at which 50% of the maximal receptor activation was achieved), the Hill coefficient as well as the maximal response in % of the maximal stimulatory effect obtained with saturating concentrations of L-AP4 were calculated (see FIG. 1). […] A depression of the signal observed after addition of the EC20 concentration of L-AP4 was indicative of an inhibitory activity of the test compound.

T1 sequence (Q14833 33-912): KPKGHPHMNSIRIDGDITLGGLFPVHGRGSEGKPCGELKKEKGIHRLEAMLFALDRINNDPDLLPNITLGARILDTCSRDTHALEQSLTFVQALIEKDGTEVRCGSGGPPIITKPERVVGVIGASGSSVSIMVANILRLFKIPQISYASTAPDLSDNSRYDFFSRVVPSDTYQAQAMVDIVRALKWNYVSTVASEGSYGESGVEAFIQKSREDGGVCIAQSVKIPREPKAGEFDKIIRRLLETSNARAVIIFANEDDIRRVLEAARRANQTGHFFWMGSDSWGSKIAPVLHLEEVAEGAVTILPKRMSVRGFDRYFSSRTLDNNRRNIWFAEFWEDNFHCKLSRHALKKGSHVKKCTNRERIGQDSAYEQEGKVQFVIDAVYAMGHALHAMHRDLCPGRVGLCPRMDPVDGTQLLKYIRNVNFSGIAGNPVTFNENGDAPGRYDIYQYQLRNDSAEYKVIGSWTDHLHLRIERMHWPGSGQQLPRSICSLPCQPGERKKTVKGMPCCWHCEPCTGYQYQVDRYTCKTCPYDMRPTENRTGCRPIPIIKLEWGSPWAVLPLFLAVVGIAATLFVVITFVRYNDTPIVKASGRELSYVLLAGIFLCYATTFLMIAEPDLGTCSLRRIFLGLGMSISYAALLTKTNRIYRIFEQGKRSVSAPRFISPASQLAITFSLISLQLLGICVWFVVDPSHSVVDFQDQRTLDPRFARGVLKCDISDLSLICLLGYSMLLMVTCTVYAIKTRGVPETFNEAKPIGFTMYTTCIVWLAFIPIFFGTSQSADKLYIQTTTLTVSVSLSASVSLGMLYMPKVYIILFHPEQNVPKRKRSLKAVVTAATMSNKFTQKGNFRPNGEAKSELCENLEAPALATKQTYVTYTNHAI

On to `CN1C(=O)N(c2c(F)cc(C#Cc3ccccc3)cc2F)C(=O)C[C@@]1(C)c1nn(C)c2ccccc12` [Example 8, (6S)-3-[2,6-Difluoro-4-(2-phenylethynyl)phenyl]-1,6-dimethyl-6-(1-methylindazol-3-yl)hexahydropyrimidine-2,4-dione], for which the Emax was 99% and the EC50 came to 157 nM.

As to `CN1C(=O)N(c2c(F)cc(C#Cc3ccccc3)cc2F)C(=O)C[C@@]1(C)c1cnn2ccccc12` [Example 14, (6S)-3-[2,6-Difluoro-4-(2-phenylethynyl)phenyl]-1,6-dimethyl-6-pyrazolo[1,5-a]pyridin-3-yl-hexahydropyrimidine-2,4-dione], the Emax stood at 137% and the EC50 is 93 nM.

Consider `CN1C(=O)N(c2c(F)cc(C#Cc3ccccc3)cc2F)C(=O)C[C@@]1(C)c1cnn(C)n1` [Example 33, (6S)-3-[2,6-Difluoro-4-(2-phenylethynyl)phenyl]-1,6-dimethyl-6-(2-methyltriazol-4-yl)hexahydropyrimidine-2,4-dione], for which the Emax is 196% and the concentration for a half-maximal effect (EC50) came out at 59 nM.

As to `CN1C(=O)N(c2c(F)cc(C#Cc3cccc(F)c3)cc2F)C(=O)C[C@@]1(C)c1cnn(C)c1` [Example 47, (6S)-3-[2,6-Difluoro-4-[2-(3-fluorophenyl)ethynyl]phenyl]-1,6-dimethyl-6-(1-methylpyrazol-4-yl)hexahydropyrimidine-2,4-dione], the Emax came to 136% and the EC50 was determined as 71 nM.

As for `CN1C(=O)N(c2c(F)cc(C#Cc3ccccc3)cc2F)C(=O)C[C@@]1(C)c1nccs1` [Example 1, (6S)-3-[2,6-Difluoro-4-(2-phenylethynyl)phenyl]-1,6-dimethyl-6-thiazol-2-yl-hexahydropyrimidine-2,4-dione], the Emax stood at 119% and the EC50 is 113 nM.

For the compound `CC(C)n1ccc([C@]2(C)CC(=O)N(c3c(F)cc(C#Cc4ccccc4)cc3F)C(=O)N2C)n1` [Example 29, (6S)-3-[2,6-Difluoro-4-(2-phenylethynyl)phenyl]-6-(1-isopropylpyrazol-3-yl)-1,6-dimethyl-hexahydropyrimidine-2,4-dione], the Emax worked out at 146% and the EC50 came out at 126 nM.

As for `CN1C(=O)N(c2ccc(C#Cc3ccccc3)cc2Cl)C(=O)C[C@@]1(C)c1cnn(C)c1` [Example 37, (6S)-3-[2-Chloro-4-(2-phenylethynyl)phenyl]-1,6-dimethyl-6-(1-methylpyrazol-4-yl)hexahydropyrimidine-2,4-dione], the Emax is 175% and the EC50 is 112 nM.

As for `CN1C(=O)N(c2c(F)cc(C#Cc3ccccc3)cc2Cl)C(=O)C[C@@]1(C)c1cnn(C)c1` [Example 44, (6S)-3-[2-Chloro-6-fluoro-4-(2-phenylethynyl)phenyl]-1,6-dimethyl-6-(1-methylpyrazol-4-yl)hexahydropyrimidine-2,4-dione], the Emax was 153% and the half-maximal effective concentration (EC50) stood at 99 nM.

As to `CN1C(=O)N(c2c(F)cc(C#Cc3ccccc3)cc2F)C(=O)C[C@@]1(C)c1cnn[nH]1` [Example 32, (6S)-3-[2,6-Difluoro-4-(2-phenylethynyl)phenyl]-1,6-dimethyl-6-(1H-triazol-5-yl)hexahydropyrimidine-2,4-dione], the Emax was 114% and the concentration for a half-maximal effect (EC50) came out at 20 nM.

Take `CN1C(=O)N(c2c(F)cc(C#Cc3ccccc3)cc2F)C(=O)C[C@@]1(C)c1cncs1` [Example 42, (6S)-3-[2,6-Difluoro-4-(2-phenylethynyl)phenyl]-1,6-dimethyl-6-thiazol-5-yl-hexahydropyrimidine-2,4-dione]: the Emax was 135% and the EC50 was 86 nM.

In the case of `CN1C(=O)N(c2c(F)cc(C#Cc3ccccc3)cc2F)C(=O)C[C@@]1(C)c1cnn(CC2COC2)c1` [Example 61, (6S)-3-[2,6-Difluoro-4-(2-phenylethynyl)phenyl]-1,6-dimethyl-6-[1-(oxetan-3-ylmethyl)pyrazol-4-yl]hexahydropyrimidine-2,4-dione], the Emax was found to be 110% and the EC50 amounted to 63 nM.

In the case of `CN1C(=O)N(c2c(F)cc(C#Cc3cc(F)ccc3F)cc2F)C(=O)C[C@@]1(C)c1cnn(C)c1` [Example 48, (6S)-3-[4-[2-(2,5-Difluorophenyl)ethynyl]-2,6-difluoro-phenyl]-1,6-dimethyl-6-(1-methylpyrazol-4-yl)hexahydropyrimidine-2,4-dione], the Emax is 140% and the EC50 came to 79 nM.

With `CN1C(=O)N(c2c(F)cc(C#Cc3ccc(F)cc3F)cc2F)C(=O)C[C@@]1(C)c1cnn(C)c1` [Example 58, (6S)-3-[4-[2-(2,4-Difluorophenyl)ethynyl]-2,6-difluoro-phenyl]-1,6-dimethyl-6-(1-methylpyrazol-4-yl)hexahydropyrimidine-2,4-dione], the Emax is 139% and the concentration giving a half-maximal response (EC50) was found to be 80 nM.

`CCn1ccc([C@]2(C)CC(=O)N(c3c(F)cc(C#Cc4ccccc4)cc3F)C(=O)N2C)n1` [Example 28, (6S)-3-[2,6-Difluoro-4-(2-phenylethynyl)phenyl]-6-(1-ethylpyrazol-3-yl)-1,6-dimethyl-hexahydropyrimidine-2,4-dione]: the Emax turned out to be 139% and the EC50 worked out at 96 nM.

`CC(C)n1cc([C@]2(C)CC(=O)N(c3c(F)cc(C#Cc4ccccc4)cc3F)C(=O)N2C)cn1` [Example 19, (6S)-3-[2,6-Difluoro-4-(2-phenylethynyl)phenyl]-6-(1-isopropylpyrazol-4-yl)-1,6-dimethyl-hexahydropyrimidine-2,4-dione]: the Emax was found to be 139% and the concentration for a half-maximal effect (EC50) stood at 36 nM.

As to `Cc1ncc([C@]2(C)CC(=O)N(c3c(F)cc(C#Cc4ccccc4)cc3F)C(=O)N2C)s1` [Example 39, (6S)-3-[2,6-Difluoro-4-(2-phenylethynyl)phenyl]-1,6-dimethyl-6-(2-methylthiazol-5-yl)hexahydropyrimidine-2,4-dione], the Emax amounted to 148% and the half-maximal effective concentration (EC50) was 71 nM.

On to `CN1C(=O)N(c2c(F)cc(C#Cc3ccccc3)cc2F)C(=O)C[C@@]1(C)c1ncnn1C` [Example 4, (6S)-3-[2,6-Difluoro-4-(2-phenylethynyl)phenyl]-1,6-dimethyl-6-(2-methyl-1,2,4-triazol-3-yl)hexahydropyrimidine-2,4-dione], for which the Emax was 95% and the EC50 was determined as 136 nM.

As to `CN1C(=O)N(c2c(F)cc(C#Cc3ccccc3F)cc2F)C(=O)C[C@@]1(C)c1cnn(C)c1` [Example 50, (6S)-3-[2,6-Difluoro-4-[2-(2-fluorophenyl)ethynyl]phenyl]-1,6-dimethyl-6-(1-methylpyrazol-4-yl)hexahydropyrimidine-2,4-dione], the Emax was 147% and the half-maximal effective concentration (EC50) amounted to 50 nM.

Turning to `CN1C(=O)N(c2c(F)cc(C#Cc3ccccc3)cc2F)C(=O)C[C@@]1(C)c1cnsc1` [Example 15, (6S)-3-[2,6-Difluoro-4-(2-phenylethynyl)phenyl]-6-isothiazol-4-yl-1,6-dimethyl-hexahydropyrimidine-2,4-dione], the Emax was found to be 167% and the EC50 worked out at 38 nM.

On to `CN1C(=O)N(c2c(F)cc(C#Cc3ccccc3)cc2F)C(=O)C[C@@]1(C)c1cncn1C` [Example 11, (6S)-3-[2,6-Difluoro-4-(2-phenylethynyl)phenyl]-1,6-dimethyl-6-(3-methylimidazol-4-yl)hexahydropyrimidine-2,4-dione], for which the Emax is 91% and the EC50 was determined as 59 nM.

The values are drawn from patent publication US10065956B2, “Ethynyl derivatives” (Hoffmann-La Roche Inc., priority 2015, dated 2018).
